PubChem BioAssay AID1918996 (Molecular Pharmacology Branch, DTP, NCI, 2023)

Test system: 349418-098-R-PDC complex spheroid growth
Assay: Anticancer human tumor 349418-098-R-PDC patient-derived lung adenocarcinoma cell line growth inhibition [AhR]
Settings: for IC50: curve of first compound; for viability, T/C: stronger effect = lower value; active means viability on the fitted dose curve at most 10% of control; inactive means the rest
In short: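 Agents were dosed in half-log steps down from roughly clinical Cmax, or from 10 microM where Cmax was unknown, alone and with AhR antagonists. Read-out: percent test/control growth of tumor spheroids containing HUVEC and MSC stromal cells.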
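Further: spheroids exposed to agents for seven days before luminescence viability read.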
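Wherever viability, T/C is given: spheroids also contain HUVEC endothelial cells and human MSC stroma.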

O=C(C=Cn1cnc(-c2cc(C(F)(F)F)cc(C(F)(F)F)c2)n1)NNc1cnccn1 + CC(CO)NC(=O)c1cc(-c2ccc(Cl)cc2)nn(-c2cnn(C)c2)c1=O
16.9 nM: IC50 (second compound 1 µM)
inactive: viability, T/C (second compound 0.1 µM, first compound 0.00949 µM) 44.2% | viability, T/C (second compound 0.1 µM, first compound 0.03 µM) 32.1% | viability, T/C (second compound 0.1 µM, first compound 0.0949 µM) 18% | viability, T/C (second compound 0.1 µM, first compound 0.3 µM) 9.7% | viability, T/C (second compound 0.316 µM, first compound 0.00949 µM) 42.7% | viability, T/C (second compound 0.316 µM, first compound 0.03 µM) 34.2% | viability, T/C (second compound 0.316 µM, first compound 0.0949 µM) 22.2% | viability, T/C (second compound 0.316 µM, first compound 0.3 µM) 10.9% | viability, T/C (second compound 1 µM, first compound 0.00949 µM) 62.4% | viability, T/C (second compound 1 µM, first compound 0.03 µM) 37.9% | viability, T/C (second compound 1 µM, first compound 0.0949 µM) 20.1% | viability, T/C (second compound 1 µM, first compound 0.3 µM) 11.7% | viability, T/C (second compound 3.16 µM, first compound 0.00949 µM) 48% | viability, T/C (second compound 3.16 µM, first compound 0.03 µM) 43.3% | viability, T/C (second compound 3.16 µM, first compound 0.0949 µM) 18.6% | viability, T/C (second compound 10 µM, first compound 0.00949 µM) 36.1% | viability, T/C (second compound 10 µM, first compound 0.03 µM) 34.6% | viability, T/C (second compound 10 µM, first compound 0.0949 µM) 18.9% | viability, T/C (second compound 10 µM, first compound 0.3 µM) 8.82%
< 9.49 nM: IC50 (second compound 0.1 µM) | IC50 (second compound 0.316 µM) | IC50 (second compound 3.16 µM) | IC50 (second compound 10 µM)
active: viability, T/C (second compound 0.1 µM, first compound 0.949 µM) 8.06% | viability, T/C (second compound 0.1 µM, first compound 3 µM) 6.68% | viability, T/C (second compound 0.316 µM, first compound 0.949 µM) 7.86% | viability, T/C (second compound 0.316 µM, first compound 3 µM) 5.14% | viability, T/C (second compound 1 µM, first compound 0.949 µM) 9.27% | viability, T/C (second compound 1 µM, first compound 3 µM) 5.79% | viability, T/C (second compound 3.16 µM, first compound 0.3 µM) 9.44% | viability, T/C (second compound 3.16 µM, first compound 0.949 µM) 7.82% | viability, T/C (second compound 3.16 µM, first compound 3 µM) 5.81% | viability, T/C (second compound 10 µM, first compound 0.949 µM) 7.38% | viability, T/C (second compound 10 µM, first compound 3 µM) 6.61%
